Entries after “also recorded” stand apart in the source; their conditions may differ.
How the values were obtained:
melanocytes = settings: Pigment. Cell. Res., 13, 2000; cited from earlier work
tyrosinase = biological target: T1, tyrosinase (Homo sapiens, UniProt P14679); settings: J. Soc. Cosmet. Chem., 42, 1991; cited from earlier work
T1 sequence (P14679 19-529): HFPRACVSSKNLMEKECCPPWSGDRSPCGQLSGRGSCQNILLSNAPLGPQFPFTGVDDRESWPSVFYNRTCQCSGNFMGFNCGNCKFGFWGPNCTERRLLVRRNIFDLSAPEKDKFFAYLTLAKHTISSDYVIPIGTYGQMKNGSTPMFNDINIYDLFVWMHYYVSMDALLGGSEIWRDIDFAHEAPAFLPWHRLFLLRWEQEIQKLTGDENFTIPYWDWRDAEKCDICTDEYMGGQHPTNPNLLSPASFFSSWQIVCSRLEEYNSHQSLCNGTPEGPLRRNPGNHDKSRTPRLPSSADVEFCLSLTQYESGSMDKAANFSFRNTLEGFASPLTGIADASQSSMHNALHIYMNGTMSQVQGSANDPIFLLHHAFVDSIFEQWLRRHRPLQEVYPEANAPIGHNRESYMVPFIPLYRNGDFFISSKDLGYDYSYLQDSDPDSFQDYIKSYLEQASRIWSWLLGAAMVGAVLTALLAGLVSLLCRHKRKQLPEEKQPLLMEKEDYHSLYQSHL

melanogenesis = experiment: Activity on melanogenesis (ratio of thiouracil to leucine incorporation); assay type: cell-based; settings: for IC50: read-out: IC50 (concentration for which a 50% inhibition of melanogenesis is observed); for Inhibitory activity on melanogenesis: relative to 100% of control, test concentration: T1 312 μM, T2 327 μM, A 230 μM, B 262 μM
Procedure: The melanogenesis-modulating effect of the compounds of formula (I) was measured according to the method described in patent application EP-0 993 826 filed by the Applicant, and also in the article by R. Schmidt, P. Krien and M. Regnier, Anal. Biochem., 235(2), 113-18, (1996).
(§1) The following were determined for each test compound:
the inhibitory activity on melanin synthesis, by estimating the ratio of the incorporation of thiouracil to the incorporation of leucine, relative to 100% of the control (the control corresponds to the test performed without test compound),
the IC50 value, which corresponds to the micromolar (μM) concentration for which a 50% inhibition of melanogenesis is observed.

[1] = tested on: melanocytes in co-culture; experiment: Activity on the dendricity of melanocytes (melanocyte/keratinocyte co-culture, NKlbeteb labelling); assay type: cell-based; settings: 7 days treatment, 100 μg per ml; test concentration: T1 312 μM, T2 327 μM, A 230 μM, B 262 μM
Procedure: The aim of this test is to show the effect of the compounds used according to the invention on the morphological modulation of melanocytes.
The melanocytes are treated immediately on inoculation with the compounds according to the invention for 7 days. The compounds are used at a dose of 100 μg per ml.
The melanocytes are labelled using the antibody NKlbeteb (green coloration), which recognizes melanosomes at any stage of maturation. The nucleus of all the cells, melanocytes and keratinocytes, is stained using propidium iodide (red coloration).
In the absence of the compounds according to the invention, the melanocytes in co-culture are highly dendritic. The pigment is visibly transferred to the neighbouring keratinocytes.

[2] = Cytotoxicity by estimating the incorporation of leucine; assay type: cell-based
Procedure: as §1
the cytotoxicity, by estimating the incorporation of leucine, […]

Compound | Dendricity of the melanocytes (melanocytes) | Melanin transfer (melanocytes) | Effect on tyrosinase (tyrosinase) | IC50 (melanogenesis) | Dendricity [1] | Transfer of pigmentation [1] | Cytotoxicity [2] | IC50 (concentration for which a 50% inhibition of melanogenesis is observed) (melanogenesis) | Inhibitory activity on melanogenesis (melanogenesis)
O=C1O[C@H]([C@@H](O)CO)C([O-])=C1OP(=O)([O-])[O-].O=C1O[C@H]([C@@H](O)CO)C([O-])=C1OP(=O)([O-])[O-].[Mg+2].[Mg+2].[Mg+2] [magnesium ascorbyl phosphate] | reduce the dendricity | effect on melanin transfer |  |  |  |  |  |  | 
O=C1O[C@H]([C@@H](O)CO)C(O)=C1O [ascorbic acid] |  |  | inhibitory effect |  |  |  |  |  | 
COc1cc(/C=C/C(=O)OC2=C(O)C(C3COC(C)(C)O3)OC2=O)ccc1O (centres unmarked) [Compound B, 5-(2,2-dimethyl[1,3]dioxolan-4-yl)-4-hydroxy-2-oxo-2,5-dihydro-3-furanyl 3-[(4-hydroxy-3-methoxy)phenyl]acrylate] |  |  |  | 500 µM | Bipolar | reduced; also recorded: Little | No |  | 
O=C(/C=C/c1ccccc1)OC1=C(O)[C@@H]([C@@H](O)CO)OC1=O [Compound T2, ascorbyl 2-cinnamate] |  |  |  |  | Multipolar | Large | No | No effect | No effect
methyl 2,3-bis-acetate of ascorbic acid [Compound T1] |  |  |  |  | Multipolar | Large |  | No effect | No effect
COc1cc(/C=C/C(=O)OC2=C(O)C(C3COC(C)(C)O3)OC2=O)ccc1OC(C)=O (centres unmarked) [Compound A, 5-(2,2-dimethyl[1,3]dioxolan-4-yl)-4-hydroxy-2-oxo-2,5-dihydro-3-furanyl 3-[(4-acetoxy-3-methoxy)phenyl]acrylate] |  |  |  | 200 µM | Bipolar | reduced; also recorded: Little | No |  | 
